pEC50: −log10 of the molar value.
Key:
Assay type in all cases: functional
U-251 = assay: Cytotoxicity against human U251 cells after 48 hrs by SRB assay; conditions: U-251, 48 h, read-out: ED50 (the source's name)
MCF7 = assay: Cytotoxicity against human MCF7 cells after 48 hrs by SRB assay; conditions: MCF7, 48 h, read-out: ED50 (the source's name)
A549 = assay: Cytotoxicity against human A549 cells after 48 hrs by SRB assay; conditions: A549, 48 h, read-out: ED50 (the source's name)
[1] = Cytotoxicity against human RPMI cells after 48 hrs by SRB assay; conditions: read-out: ED50 (the source's name)
HT-29 = assay: Cytotoxicity against human HT-29 cells after 48 hrs by SRB assay; conditions: HT-29, 48 h, read-out: ED50 (the source's name)

| SMILES | pEC50 (U-251) | pEC50 (MCF7) | pEC50 (A549) | pEC50 [1] | pEC50 (HT-29) |
| --- | --- | --- | --- | --- | --- |
| CC(=O)C1=C(N)C(=O)c2c(O)cccc2C1=O | 5.52 | 5.59 | 5.59 | 5.52 | – |
| COc1c(C)c2c([nH]c1=O)C(=O)c1ccccc1C2=O [DIELSIQUINONE] | 6.43 | 6.96 | 6.96 | 6.96 | 5.95 |
| Cc1cc(=O)[nH]c2c1C(=O)c1ccccc1C2=O [MARCANIN A] | 6.08 | 6.38 | 6.38 | 6.38 | 6.38 |
| COc1c(C)c2c(n(C)c1=O)C(=O)c1ccccc1C2=O [MARCANIN B] | 5.85 | 6.74 | 6.46 | 6.15 | 5.67 |
| COc1c(CO)c2c(n(C)c1=O)C(=O)c1ccccc1C2=O [MARCANINE C] | – | 6.00 | 6.00 | 6.17 | 6.48 |
| COc1c(C)c2c([nH]c1=O)C(=O)c1cccc(O)c1C2=O [MARCANINE D] | 6.55 | 7.10 | 7.40 | 7.10 | 6.46 |

From ChEMBL document CHEMBL1144124, “New cytotoxic 1-azaanthraquinones and 3-aminonaphthoquinone from the stem bark of Goniothalamus marcanii” (1999)
